Source: US20240076297A1, “ADENOSINE A2A AND A2B RECEPTOR DUAL ANTAGONISTS FOR IMMUNO-ONCOLOGY” (Merck Sharp & Dohme LLC, priority 2020, published 2024)

Assays:
[1] = molecular target: human A2A adenosine receptor (Homo sapiens (Human), UniProt P29274); experiment: A2A binding affinity using radioligand binding, Method (A); settings: Method (A): filtration radioligand binding, [3H] SCH58261, membranes expressing human A2A
Method in brief: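 Filtration binding used HEK293 or CHO membranes (5 μg/mL) preincubated with compound for 15–30 min at RT. [3H]SCH58261 (4 nM working solution) was added in Tris pH 7.4/10 mM MgCl2/0.005% Tween20 for 60 min at RT, with 1 μM ZM241385 defining nonspecific binding. Scintillation counts gave IC50 via 4-parameter logistic fit.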

[2] = molecular target: human A2B adenosine receptor (Homo sapiens (Human), UniProt P29275); experiment: A2B binding affinity, radioligand filtration binding assay; settings: value given with marker (A); HEK293 membranes expressing human A2B, tritiated proprietary antagonist
Description: Method (A) describes the procedure used to measure A2A binding affinity using radioligand binding. Method (B) describes the procedure used to measure A2A binding affinity using SPA technology. The method used to measure A2B binding affinity is also described below. The method used to determine the A2A IC50 value reported for each compound in the table is indicated next to the reported value. The A2B IC50 value measured using the A2B binding affinity assay is shown in the table next to the compound under the corresponding A2A value.
Measurement of A2B Binding Affinity
The reported affinity of the compounds of the invention for the human A2B adenosine receptor was determined experimentally using a radioligand filtration binding assay. This assay measures the amount of binding of a tritiated proprietary A2B receptor antagonist, in the presence and absence of a compound of the invention, to membranes made from HEK293 cells recombinantly expressing the human A2B adenosine receptor (Perkin Elmer, Cat. No. ES-013-C).
148 μL (135 μg/mL) membranes and 2 μL test compounds were transferred to individual wells of a 96-well polypropylene assay plate and incubated for 15 to 30 min at room temperature with agitation. Tritiated radioligand was diluted to a concentration of 14 nM in assay buffer (phosphate buffered saline without Magnesium and Calcium, pH 7.4; GE Healthcare Life Sciences, Cat. No. SH30256.01) and then 50 μL of the solution were transferred to each well of the assay plate. To define total and non-specific binding, wells containing 1% DMSO and 20 μM N-ethylcarboxamidoadenosine (Tocris Bioscience, Cat. No. 1691) respectively, were also included. The wells of the assay plate were incubated at room temperature for 60 min with agitation, then filtered using a FilterMate Harvester® (Perkin Elmer) or similar equipment through a UniFilter-96@ PEI coated plate (Perkin Elmer Cat. No. 6005274 or 6005277). Filtering was achieved by aspirating the contents of the assay plate for 5 sec, then washing and aspirating the contents three times with ice-cooled wash buffer (assay buffer supplemented with 0.0025% Brij58) and allowing the vacuum manifold to dry the plate for 30 sec. The filter plate was incubated for at least 1 h at 55° C. and allowed to dry. The bottom of the filter plate was then sealed with backing tape. 40 μL Ultima Gold™ (Perkin Elmer, Cat. No. 6013329) was added to each well of the filter plate and the top of the plate was sealed with TopSeal-A PLUS® clear plate seal (Perkin Elmer, Cat. No. 6050185). The plates were then incubated for at least 20 min, and then the amount of radioactivity remaining in each well was determined using a TopCount® (Perkin Elmer) scintillation counter. After normalization to total and non-specific binding, the percent effect at each compound concentration was calculated. The plot of percent effect versus the log of compound concentration was analyzed electronically using a 4-parameter logistic fit based on the Levenberg-Marquardt algorithm to generate IC50 values.

Sequence of human A2A adenosine receptor (P29274 whole entry): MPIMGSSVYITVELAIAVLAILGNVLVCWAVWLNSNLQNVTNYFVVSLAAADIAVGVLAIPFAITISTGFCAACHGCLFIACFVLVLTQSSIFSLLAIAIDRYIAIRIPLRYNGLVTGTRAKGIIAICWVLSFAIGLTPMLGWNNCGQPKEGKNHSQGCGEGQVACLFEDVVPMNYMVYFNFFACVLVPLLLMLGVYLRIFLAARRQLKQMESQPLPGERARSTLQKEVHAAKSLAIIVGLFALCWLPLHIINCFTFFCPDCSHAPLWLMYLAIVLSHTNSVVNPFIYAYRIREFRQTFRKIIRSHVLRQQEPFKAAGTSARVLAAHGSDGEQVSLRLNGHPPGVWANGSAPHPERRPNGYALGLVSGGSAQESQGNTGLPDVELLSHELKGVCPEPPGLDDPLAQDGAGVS
Sequence of human A2B adenosine receptor (P29275 whole entry): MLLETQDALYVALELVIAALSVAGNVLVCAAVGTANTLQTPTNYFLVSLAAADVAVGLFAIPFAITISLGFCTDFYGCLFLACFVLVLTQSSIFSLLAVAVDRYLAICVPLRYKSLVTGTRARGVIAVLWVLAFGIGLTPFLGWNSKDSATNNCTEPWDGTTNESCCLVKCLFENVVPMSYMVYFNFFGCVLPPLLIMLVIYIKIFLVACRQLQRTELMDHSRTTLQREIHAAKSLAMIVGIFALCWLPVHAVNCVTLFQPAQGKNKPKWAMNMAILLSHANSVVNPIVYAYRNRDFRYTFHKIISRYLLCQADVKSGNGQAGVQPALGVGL

Row | IC50 [1] | IC50 [2] | SMILES
1 | 0.8 nM | 12 nM | COc1cccc2c1nc(N)n1nc(CCC3CCc4c(nnn4C(C)C)C3)nc21 (single isomer, unassigned) [Example 5.2B, (R or S)-2-(2-(1-isopropyl-4,5,6,7-tetrahydro-1H-benzo[d][1,2,3]triazol-5-yl)ethyl)-7-methoxy-[1,2,4]triazolo[1,5-c]quinazolin-5-amine]
2 | 0.9 nM | 3.1 nM | COc1cccc2c1nc(N)n1nc(CCC3CCc4c(nnn4C4CC(F)(F)C4)C3)nc21 (single isomer, unassigned) [Example 5.3B, (R or S)-2-(2-(1-(3,3-difluorocyclobutyl)-4,5,6,7-tetrahydro-1H-benzo[d][1,2,3]triazol-5-yl)ethyl)-7-methoxy-[1,2,4]triazolo-[1,5-c]quinazolin-5-amine]
3 | 1.9 nM | 9.4 nM | COc1cc(F)cc2c1nc(N)n1nc(CCC3CCc4nn(C(C)C)cc4C3)nc21 (single isomer, unassigned) [Example 5.4A, (S or R)-9-fluoro-2-(2-(2-isopropyl-4,5,6,7-tetrahydro-2H-indazol-5-yl)ethyl)-7-methoxy-[1,2,4]triazolo[1,5-c]quinazolin-5-amine]
4 | 3.1 nM | 139 nM | COc1cc(F)cc2c1nc(N)n1nc(CC3CC3c3ccc(C(C)(C)N)cc3)nc21 (single isomer, unassigned) [Example 8.4B, 2-(((1R,2S or 1S,2R)-2-(4-(2-aminopropan-2-yl)phenyl)-cyclopropyl)methyl)-9-fluoro-7-methoxy-[1,2,4]triazolo-[1,5-c]quinazolin-5-amine]
5 | 1.3 nM | 3.3 nM | COc1cccc2c1nc(N)n1nc(CC3CC3c3ccc(C(C)(C)N)cc3)nc21 (single isomer, unassigned) [Example 8.5B, 2-(((IR,2S or 1S,2R)-2-(4-(2-aminopropan-2-yl)phenyl)cyclopropyl)methyl)-7-methoxy-[1,2,4]triazolo[1,5-c]quinazolin-5-amine]
6 | 0.7 nM | 61.4 nM | COc1cc2nc(N)n3nc(CC(C)S(C)(=O)=O)nc3c2cc1F (single isomer, unassigned) [Example 13.2A, (S or R)-9-fluoro-8-methoxy-2-(2-(methylsulfonyl)propyl)-[1,2,4]triazolo[1,5-c]quinazolin-5-amine]
7 | 8.1 nM | 1050 nM | COc1cc2nc(N)n3nc(CC(C)S(C)(=O)=O)nc3c2cc1F (single isomer, unassigned) [Example 13.2B, (R or S)-9-fluoro-8-methoxy-2-(2-(methylsulfonyl)propyl)-[1,2,4]triazolo[1,5-c]quinazolin-5-amine]
8 | 0.1 nM | 0.6 nM | COc1cccc2c1nc(N)n1nc(COCc3ccc(C(O)(C(F)(F)F)C(F)(F)F)cc3)nc21 [Example 4.1, 2-(4-(((5-amino-7-methoxy-[1,2,4]triazolo[1,5-c]quinazolin-2-yl)methoxy)methyl)phenyl)-1,1,1,3,3,3-hexafluoropropan-2-ol]
9 | 0.2 nM | 9.1 nM | COc1cc(F)cc2c1nc(N)n1nc(COCc3ccc(C(C)(C)O)cc3)nc21 [Example 4.14, 2-(4-(((5-amino-9-fluoro-7-methoxy-[1,2,4]triazolo[1,5-c]quinazolin-2-yl)methoxy)methyl)phenyl)propan-2-ol]
10 | 0.2 nM | 10 nM | COc1cccc2c1nc(N)n1nc(COCc3ccc(C(C)(C)O)cc3)nc21 [Example 4.15, 2-(4-(((5-amino-7-methoxy-[1,2,4]triazolo[1,5-c]quinazolin-2-yl)methoxy)methyl)phenyl)propan-2-ol]
11 | 0.3 nM | 0.9 nM | COc1cc(F)cc2c1nc(N)n1nc(COCc3ccc(C(O)(C(F)(F)F)C(F)(F)F)cc3)nc21 [Example 4.16, 2-(4-(((5-amino-9-fluoro-7-methoxy-[1,2,4]triazolo[1,5-c]quinazolin-2-yl)methoxy)methyl)phenyl)-1,1,1,3,3,3-hexafluoropropan-2-ol]
